This passage reports inhibition results from patent publication US8343983B2, “Substituted pyrazolo-pyrimidine compounds” (ArQule, Inc., priority 2009, dated 2013).

Read-outs that look alike come from different tables or passages of the source.

The assay concerns cancer cells. Put plainly: MTS assay: inhibition of cell growth (formazan absorbance at 492 nm after 72 hours with test compound). In kind it is cell-based. Conditions: inhibition class. The essentials:
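DMEM with 1% FBS; cells seeded at 3000/well and grown 18 h at 37 °C, then exposed to compound for 72 h and to MTS/PMS for 4 h. IC50 is the concentration giving a 50% absorbance drop; grades are % inhibition bands.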
For orientation: Tetrazolium assays rely on reduction of a dye to a coloured formazan, in cell work by metabolically active cells.

Setting [1] is: Homo sapiens, DLD-1 cells, read-out: DLD-1, MTS 72 hours at 10 uM.
The mark [2] stands for this setting: Homo sapiens, KATO III cells, read-out: KATO III, MTS 72 hours at 10 uM.
The mark [3] stands for this setting: Homo sapiens, MDA-MB-231 cells, read-out: MDA-MB-231, MTS 72 hours at 10 uM.
The mark [4] stands for this setting: Homo sapiens, NCI-H1299 cells, read-out: NCI-H1299, MTS 72 hours at 10 uM.
Where [5] appears, read: Homo sapiens, PC-3 cells, read-out: PC-3, MTS 72 hours at 10 uM.
The mark [6] stands for this setting: PACA-2 cells, read-out: PACA-2, MTS 72 hours at 10 uM.

On to `O=C(NCc1ccccc1)C1CN(Cc2ccccc2)c2nc(NCc3ccco3)nc3[nH]nc1c23` (stereo not drawn) [Compound 225, N,6-dibenzyl-4-[(furan-2-ylmethyl)amino]-2,6,7,8-tetrahydro-1,2,3,5,6-pentaazaacenaphthylene-8-carboxamide], for which the inhibition at 10 µM under setting [1] is less than 50%; the inhibition at 10 µM under setting [2] was less than 50%; the inhibition at 10 µM under setting [3] is less than 50%; the inhibition at 10 µM under setting [4] was less than 50%; the inhibition at 10 µM under setting [5] was less than 50%; the inhibition at 10 µM under setting [6] is less than 50%.
In the case of `O=C(NCc1ccccc1)C1CN(Cc2ccccc2)c2nc(NCCc3c[nH]c4ccccc34)nc3[nH]nc1c23` (stereo not drawn) [Compound 226, N,6-dibenzyl-4-{[2-(1H-indol-3-yl)ethyl]amino}-2,6,7,8-tetrahydro-1,2,3,5,6-pentaazaacenaphthylene-8-carboxamide], the inhibition at 10 µM by setting is: under setting [1], more than 79%; under setting [2], more than 79%; under setting [3], more than 79%; under setting [4], more than 79%; under setting [5], more than 79%; under setting [6], more than 79%.
On to `O=C(NCc1ccccc1)C1CN(Cc2ccccc2)c2nc(N3CCCCC3)nc3[nH]nc1c23` (stereo not drawn) [Compound 227, N,6-dibenzyl-4-piperidin-1-yl-2,6,7,8-tetrahydro-1,2,3,5,6-pentaazaacenaphthylene-8-carboxamide], for which the inhibition at 10 µM reads like this: under setting [1], more than 79%; under setting [2], 50 to 79%; under setting [3], more than 79%; under setting [4], more than 79%; under setting [5], more than 79%; under setting [6], less than 50%.
Turning to `CN1CCN(c2nc3c4c(n[nH]c4n2)C(C(=O)NCc2ccccc2)CN3Cc2ccccc2)CC1` (stereo not drawn) [Compound 228, N,6-dibenzyl-4-(4-methylpiperazin-1-yl)-2,6,7,8-tetrahydro-1,2,3,5,6-pentaazaacenaphthylene-8-carboxamide], the inhibition at 10 µM reads like this: under setting [1], less than 50%; under setting [2], less than 50%; under setting [3], less than 50%; under setting [4], less than 50%; under setting [5], less than 50%; under setting [6], less than 50%.
For `O=C(NCc1ccccc1)C1CN(Cc2ccccc2)c2nc(NCc3ccccc3Cl)nc3[nH]nc1c23` (stereo not drawn) [Compound 229, N,6-dibenzyl-4-[(2-chlorobenzyl)amino]-2,6,7,8-tetrahydro-1,2,3,5,6-pentaazaacenaphthylene-8-carboxamide], the inhibition at 10 µM was less than 50% under setting [1]; less than 50% under setting [2]; less than 50% under setting [3]; less than 50% under setting [4]; 50 to 79% under setting [5]; less than 50% under setting [6].
`O=C(NCc1ccccc1)C1CN(Cc2ccccc2)c2nc(NCc3ccc(Oc4ccccc4)cc3)nc3[nH]nc1c23` (stereo not drawn) [Compound 230, N,6-dibenzyl-4-[(4-phenoxybenzyl)amino]-2,6,7,8-tetrahydro-1,2,3,5,6-pentaazaacenaphthylene-8-carboxamide]: the inhibition at 10 µM was more than 79% under setting [1]; 50 to 79% under setting [2]; less than 50% under setting [3]; 50 to 79% under setting [4]; 50 to 79% under setting [5]; less than 50% under setting [6].
Consider `O=C(NCc1ccccc1)C1CN(Cc2ccccc2)c2nc(N3CCN(c4ccccc4)CC3)nc3[nH]nc1c23` (stereo not drawn) [Compound 231, N,6-dibenzyl-4-(4-phenylpiperazin-1-yl)-2,6,7,8-tetrahydro-1,2,3,5,6-pentaazaacenaphthylene-8-carboxamide], for which the inhibition at 10 µM was 50 to 79% under setting [1]; 50 to 79% under setting [2]; more than 79% under setting [3]; more than 79% under setting [4]; 50 to 79% under setting [5]; 50 to 79% under setting [6].
In the case of `O=C(NCc1ccccc1)C1CN(Cc2ccccc2)c2nc(NC3CCC3)nc3[nH]nc1c23` (stereo not drawn) [Compound 232, N,6-dibenzyl-4-(cyclobutylamino)-2,6,7,8-tetrahydro-1,2,3,5,6-pentaazaacenaphthylene-8-carboxamide], the inhibition at 10 µM by setting is: under setting [1], less than 50%; under setting [2], less than 50%; under setting [3], less than 50%; under setting [4], less than 50%; under setting [5], less than 50%; under setting [6], less than 50%.
As to `Cc1ccccc1CNC(=O)C1CN(Cc2ccccc2)c2nc(NCc3ccccc3)nc3[nH]nc1c23` (stereo not drawn) [Compound 233, 6-benzyl-4-(benzylamino)-N-(2-methylbenzyl)-2,6,7,8-tetrahydro-1,2,3,5,6-pentaazaacenaphthylene-8-carboxamide], the inhibition at 10 µM was more than 79% under setting [1]; 50 to 79% under setting [2]; more than 79% under setting [3]; more than 79% under setting [4]; more than 79% under setting [5]; less than 50% under setting [6].
Turning to `O=C(NCc1ccc2c(c1)OCO2)C1CN(Cc2ccccc2)c2nc(NCc3ccccc3)nc3[nH]nc1c23` (stereo not drawn) [Compound 234, N-(1,3-benzodioxol-5-ylmethyl)-6-benzyl-4-(benzylamino)-2,6,7,8-tetrahydro-1,2,3,5,6-pentaazaacenaphthylene-8-carboxamide], the inhibition at 10 µM was more than 79% under setting [1]; more than 79% under setting [2]; more than 79% under setting [3]; more than 79% under setting [4]; more than 79% under setting [5]; 50 to 79% under setting [6].
As for `O=C(NCCc1ccccc1)C1CN(Cc2ccccc2)c2nc(NCc3ccccc3)nc3[nH]nc1c23` (stereo not drawn) [Compound 235, 6-benzyl-4-(benzylamino)-N-(2-phenylethyl)-2,6,7,8-tetrahydro-1,2,3,5,6-pentaazaacenaphthylene-8-carboxamide], the inhibition at 10 µM was more than 79% under setting [1]; more than 79% under setting [2]; more than 79% under setting [3]; more than 79% under setting [4]; more than 79% under setting [5]; more than 79% under setting [6].
With `CC(C)CNC(=O)C1CN(Cc2ccccc2)c2nc(NCc3ccccc3)nc3[nH]nc1c23` (stereo not drawn) [Compound 236, 6-benzyl-4-(benzylamino)-N-(2-methylpropyl)-2,6,7,8-tetrahydro-1,2,3,5,6-pentaazaacenaphthylene-8-carboxamide], the inhibition at 10 µM is less than 50% under setting [1]; less than 50% under setting [2]; less than 50% under setting [3]; less than 50% under setting [4]; less than 50% under setting [5]; less than 50% under setting [6].
As for `O=C(C1CN(Cc2ccccc2)c2nc(NCc3ccccc3)nc3[nH]nc1c23)N1CCOCC1` (stereo not drawn) [Compound 237, N,6-dibenzyl-8-(morpholin-4-ylcarbonyl)-2,6,7,8-tetrahydro-1,2,3,5,6-pentaazaacenaphthylen-4-amine], the inhibition at 10 µM under setting [1] is less than 50%; the inhibition at 10 µM under setting [2] was less than 50%; the inhibition at 10 µM under setting [3] was less than 50%; the inhibition at 10 µM under setting [4] was less than 50%; the inhibition at 10 µM under setting [5] was less than 50%; the inhibition at 10 µM under setting [6] is less than 50%.
`O=C(NCc1ccc(Cl)cc1)C1CN(Cc2ccccc2)c2nc(NCc3ccccc3)nc3[nH]nc1c23` (stereo not drawn) [Compound 238, 6-benzyl-4-(benzylamino)-N-(4-chlorobenzyl)-2,6,7,8-tetrahydro-1,2,3,5,6-pentaazaacenaphthylene-8-carboxamide]: the inhibition at 10 µM is more than 79% under setting [1]; more than 79% under setting [2]; more than 79% under setting [3]; more than 79% under setting [4]; more than 79% under setting [5]; 50 to 79% under setting [6].
Regarding `CN(C(=O)C1CN(Cc2ccccc2)c2nc(NCc3ccccc3)nc3[nH]nc1c23)C1CCCCC1` (stereo not drawn) [Compound 239, 6-benzyl-4-(benzylamino)-N-cyclohexyl-N-methyl-2,6,7,8-tetrahydro-1,2,3,5,6-pentaazaacenaphthylene-8-carboxamide], the inhibition at 10 µM is less than 50% under setting [1]; less than 50% under setting [2]; less than 50% under setting [3]; less than 50% under setting [4]; less than 50% under setting [5]; less than 50% under setting [6].
`O=C(NCC1CCCCC1)C1CN(Cc2ccccc2)c2nc(NCc3ccccc3)nc3[nH]nc1c23` (stereo not drawn) [Compound 240, 6-benzyl-4-(benzylamino)-N-(cyclohexylmethyl)-2,6,7,8-tetrahydro-1,2,3,5,6-pentaazaacenaphthylene-8-carboxamide]: the inhibition at 10 µM reads like this: under setting [1], more than 79%; under setting [2], more than 79%; under setting [3], less than 50%; under setting [4], more than 79%; under setting [5], more than 79%; under setting [6], less than 50%.
Regarding `O=C(NCCOc1ccccc1)C1CN(Cc2ccccc2)c2nc(NCc3ccccc3)nc3[nH]nc1c23` (stereo not drawn) [Compound 241, 6-benzyl-4-(benzylmino)-N-(2-phenoxyethyl)-2,6,7,8-tetrahydro-1,2,3,5,6-pentaazaacenaphthylene-8-carboxamide], the inhibition at 10 µM under setting [1] was less than 50%; the inhibition at 10 µM under setting [2] is less than 50%; the inhibition at 10 µM under setting [3] is less than 50%; the inhibition at 10 µM under setting [4] is less than 50%; the inhibition at 10 µM under setting [5] was less than 50%; the inhibition at 10 µM under setting [6] is less than 50%.
